Laboratory results taken from patent US20230301300A1, “HERBICIDAL COMPOSITIONS” (SYNGENTA CROP PROTECTION AG, priority 2020, published 2023).

What was measured:
Type in all cases: in vivo
Setaria faberi (SETFA) [1] = experiment: B1 Post-Emergence Efficacy - Test 1; details: 1000 g/ha, after 13 days, five point scale
How it was run: (§1)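 Post-emergence spray at 1000 g/ha on plants grown 8 days in glasshouse (24/16 °C, 14 h light, 65% humidity), formulated in acetone/water with 0.5% Tween 20. Damage scored after 13 days on a five-point scale (5=80-100% down to 1=0-19%).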

[2] = tested on: Echinochloa crus-galli (ECHCG); experiment: B1 Post-Emergence Efficacy - Test 1; details: 1000 g/ha, after 13 days, five point scale
How it was run: as §1

[3] = tested on: Ipomoea hederacea (IPOHE); experiment: B1 Post-Emergence Efficacy - Test 1; details: 1000 g/ha, after 13 days, five point scale
How it was run: as §1

[4] = tested on: Amaranthus retoflexus (AMARE); experiment: B1 Post-Emergence Efficacy - Test 1; details: 1000 g/ha, after 13 days, five point scale
How it was run: as §1

Solanum nigrum (SOLNI) = experiment: B1 Post-Emergence Efficacy - Test 1; details: 1000 g/ha, after 13 days, five point scale
How it was run: as §1

Lolium perenne (LOLPE) [5] = experiment: B1 Post-Emergence Efficacy - Test 1; details: 1000 g/ha, after 13 days, five point scale
How it was run: as §1

Setaria faberi (SETFA) [6] = experiment: B2 Post-Emergence Efficacy - Test 2; details: 15 days after application, 0=no damage, 100=total kill
How it was run: (§2)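 Sow in standard soil; grow 12 d under controlled conditions, 65% humidity, 16 h light, 24/18 °C or 20/16 °C. Spray with water-diluted IF50 formulation, 0.2% v/v Genapol X080. Water twice daily. Assess injury at 15 d (0–100).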

Sinapis arvensis (SINAR) = experiment: B2 Post-Emergence Efficacy - Test 2; details: 15 days after application, 0-100 scale
How it was run: as §2

Zea mays (ZEAMX) = experiment: B2 Post-Emergence Efficacy - Test 2; details: 15 days after application; for Herbicidal activity ZEAMX: 0-100 scale; for Herbicidal activity on a 0-100 scale, ZEAMX: 0=no damage, 100=total kill
How it was run: as §2

Hordeum vulgare (HORVW) = experiment: B2 Post-Emergence Efficacy - Test 2; details: 15 days after application, 0-100 scale
How it was run: as §2

Bidens pilosa (BIDPI) = experiment: B2 Post-Emergence Efficacy - Test 2; details: 15 days after application, 0-100 scale
How it was run: as §2

Galium aparine (GALAP) = experiment: B2 Post-Emergence Efficacy - Test 2; details: 15 days after application, 0-100 scale
How it was run: as §2

Orysa sativa (ORYSA) = experiment: B2 Post-Emergence Efficacy - Test 2; details: 15 days after application; for Herbicidal activity ORYSA: 0-100 scale; for Herbicidal activity on a 0-100 scale, ORYSA: 0=no damage, 100=total kill
How it was run: as §2

Lolium perenne (LOLPE) [7] = experiment: B2 Post-Emergence Efficacy - Test 2; details: 15 days after application, 0-100 scale
How it was run: as §2

[8] = tested on: Brachiaria plantaginea (BRAPL); experiment: B2 Post-Emergence Efficacy - Test 2; details: 15 days after application, 0=no damage, 100=total kill
How it was run: as §2

Kochia scoparia (KSHSC) = experiment: B2 Post-Emergence Efficacy - Test 2; details: 15 days after application, 0-100 scale
How it was run: as §2

[9] = tested on: Digitaria sanguinalis (DIGSA); experiment: B2 Post-Emergence Efficacy - Test 2; details: 15 days after application, 0=no damage, 100=total kill
How it was run: as §2

## Cc1nn(C)c(=O)c(-c2c(F)ccc(Cl)c2CCc2ccccc2C(F)(F)F)c1O [Compound 1.066, 4-[3-chloro-6-fluoro-2-[2-[2-(trifluoromethyl)phenyl]ethyl]phenyl]-5-hydroxy-2,6-dimethyl-pyridazin-3-one]
Setaria faberi (SETFA) [1]
  percentage damage caused to the plant, SETFA: 5 (5=80-100%)
[2]
  percentage damage caused to the plant, ECHCG: 5 (5=80-100%)
[3]
  percentage damage caused to the plant, IPOHE: 5 (5=80-100%)
[4]
  percentage damage caused to the plant, AMARE: 5 (5=80-100%)
Solanum nigrum (SOLNI)
  percentage damage caused to the plant, SOLNI: 5 (5=80-100%)
Lolium perenne (LOLPE) [5]
  percentage damage caused to the plant, LOLPE: 4 (4=60-79%)
Setaria faberi (SETFA) [6]; 15 g/Ha
  Herbicidal activity on a 0-100 scale, SETFA: 0
Setaria faberi (SETFA) [6]; 30 g/Ha
  Herbicidal activity on a 0-100 scale, SETFA: 70
Setaria faberi (SETFA) [6]; 60 g/Ha
  Herbicidal activity on a 0-100 scale, SETFA: 70
Setaria faberi (SETFA) [6]; 125 g/Ha
  Herbicidal activity on a 0-100 scale, SETFA: 80
Setaria faberi (SETFA) [6]; 250 g/Ha
  Herbicidal activity on a 0-100 scale, SETFA: 90
Setaria faberi (SETFA) [6]; 500 g/Ha
  Herbicidal activity on a 0-100 scale, SETFA: 90
Sinapis arvensis (SINAR); 15 g/Ha
  Herbicidal activity SINAR: 60
Sinapis arvensis (SINAR); 30 g/Ha
  Herbicidal activity SINAR: 60
Sinapis arvensis (SINAR); 60 g/Ha
  Herbicidal activity SINAR: 80
Sinapis arvensis (SINAR); 125 g/Ha
  Herbicidal activity SINAR: 90
Sinapis arvensis (SINAR); 250 g/Ha
  Herbicidal activity SINAR: 90
Sinapis arvensis (SINAR); 500 g/Ha
  Herbicidal activity SINAR: 90
Zea mays (ZEAMX); 15 g/Ha
  Herbicidal activity ZEAMX: 0
  Herbicidal activity on a 0-100 scale, ZEAMX: 0
Zea mays (ZEAMX); 30 g/Ha
  Herbicidal activity ZEAMX: 20
  Herbicidal activity on a 0-100 scale, ZEAMX: 20
Zea mays (ZEAMX); 60 g/Ha
  Herbicidal activity ZEAMX: 20
  Herbicidal activity on a 0-100 scale, ZEAMX: 20
Zea mays (ZEAMX); 125 g/Ha
  Herbicidal activity ZEAMX: 20
  Herbicidal activity on a 0-100 scale, ZEAMX: 20
Zea mays (ZEAMX); 250 g/Ha
  Herbicidal activity ZEAMX: 30
  Herbicidal activity on a 0-100 scale, ZEAMX: 30
Zea mays (ZEAMX); 500 g/Ha
  Herbicidal activity ZEAMX: 70
  Herbicidal activity on a 0-100 scale, ZEAMX: 70
Hordeum vulgare (HORVW); 15 g/Ha
  Herbicidal activity HORVW: 0
Hordeum vulgare (HORVW); 30 g/Ha
  Herbicidal activity HORVW: 10
Hordeum vulgare (HORVW); 60 g/Ha
  Herbicidal activity HORVW: 20
Hordeum vulgare (HORVW); 125 g/Ha
  Herbicidal activity HORVW: 70
Hordeum vulgare (HORVW); 250 g/Ha
  Herbicidal activity HORVW: 80
Hordeum vulgare (HORVW); 500 g/Ha
  Herbicidal activity HORVW: 90
Bidens pilosa (BIDPI); 15 g/Ha
  Herbicidal activity BIDPI: 50
Bidens pilosa (BIDPI); 30 g/Ha
  Herbicidal activity BIDPI: 60
Bidens pilosa (BIDPI); 60 g/Ha
  Herbicidal activity BIDPI: 70
Bidens pilosa (BIDPI); 125 g/Ha
  Herbicidal activity BIDPI: 80
Bidens pilosa (BIDPI); 250 g/Ha
  Herbicidal activity BIDPI: 90
Bidens pilosa (BIDPI); 500 g/Ha
  Herbicidal activity BIDPI: 90
Galium aparine (GALAP); 15 g/Ha
  Herbicidal activity GALAP: 20
Galium aparine (GALAP); 30 g/Ha
  Herbicidal activity GALAP: 20
Galium aparine (GALAP); 60 g/Ha
  Herbicidal activity GALAP: 20
Galium aparine (GALAP); 125 g/Ha
  Herbicidal activity GALAP: 20
Galium aparine (GALAP); 250 g/Ha
  Herbicidal activity GALAP: 30
Galium aparine (GALAP); 500 g/Ha
  Herbicidal activity GALAP: 90
Orysa sativa (ORYSA); 15 g/Ha
  Herbicidal activity ORYSA: 0
  Herbicidal activity on a 0-100 scale, ORYSA: 0
Orysa sativa (ORYSA); 30 g/Ha
  Herbicidal activity ORYSA: 0
  Herbicidal activity on a 0-100 scale, ORYSA: 0
Orysa sativa (ORYSA); 60 g/Ha
  Herbicidal activity ORYSA: 0
  Herbicidal activity on a 0-100 scale, ORYSA: 0
Orysa sativa (ORYSA); 125 g/Ha
  Herbicidal activity ORYSA: 10
  Herbicidal activity on a 0-100 scale, ORYSA: 10
Orysa sativa (ORYSA); 250 g/Ha
  Herbicidal activity ORYSA: 20
  Herbicidal activity on a 0-100 scale, ORYSA: 20
Orysa sativa (ORYSA); 500 g/Ha
  Herbicidal activity ORYSA: 40
  Herbicidal activity on a 0-100 scale, ORYSA: 40
Lolium perenne (LOLPE) [7]; 15 g/Ha
  Herbicidal activity LOLPE: 10
Lolium perenne (LOLPE) [7]; 30 g/Ha
  Herbicidal activity LOLPE: 20
Lolium perenne (LOLPE) [7]; 60 g/Ha
  Herbicidal activity LOLPE: 80
Lolium perenne (LOLPE) [7]; 125 g/Ha
  Herbicidal activity LOLPE: 90
Lolium perenne (LOLPE) [7]; 250 g/Ha
  Herbicidal activity LOLPE: 90
Lolium perenne (LOLPE) [7]; 500 g/Ha
  Herbicidal activity LOLPE: 100
[8]; 15 g/Ha
  Herbicidal activity on a 0-100 scale, BRAPL: 0
[8]; 30 g/Ha
  Herbicidal activity on a 0-100 scale, BRAPL: 60
[8]; 125 g/Ha
  Herbicidal activity on a 0-100 scale, BRAPL: 80
[8]; 250 g/Ha
  Herbicidal activity on a 0-100 scale, BRAPL: 70
[8]; 500 g/Ha
  Herbicidal activity on a 0-100 scale, BRAPL: 100
Kochia scoparia (KSHSC); 15 g/Ha
  Herbicidal activity KCHSC: 0
Kochia scoparia (KSHSC); 30 g/Ha
  Herbicidal activity KCHSC: 0
Kochia scoparia (KSHSC); 60 g/Ha
  Herbicidal activity KCHSC: 0
Kochia scoparia (KSHSC); 125 g/Ha
  Herbicidal activity KCHSC: 10
Kochia scoparia (KSHSC); 250 g/Ha
  Herbicidal activity KCHSC: 20
Kochia scoparia (KSHSC); 500 g/Ha
  Herbicidal activity KCHSC: 20
[9]; 15 g/Ha
  Herbicidal activity on a 0-100 scale, DIGSA: 0
[9]; 30 g/Ha
  Herbicidal activity on a 0-100 scale, DIGSA: 20
[9]; 60 g/Ha
  Herbicidal activity on a 0-100 scale, DIGSA: 20
[9]; 125 g/Ha
  Herbicidal activity on a 0-100 scale, DIGSA: 40
[9]; 250 g/Ha
  Herbicidal activity on a 0-100 scale, DIGSA: 70
[9]; 500 g/Ha
  Herbicidal activity on a 0-100 scale, DIGSA: 70
